Where two headings read alike, the source gives them in different places. Bridge positions count the residues as written; N and C are the ends. Square brackets hold non-standard residues; d marks the D form. Ends that are not written are not given here. Peptide text beside a SMILES is read from it. I, II: the chains in the order shown. * marks the point of attachment. X1 = CCCCCCCCCCCC(=O)N[C@@H](CCCN)C(=O)N[C@@H](CCCN)C(=O)N[C@@H](CS*)C(N)=O; Lauroyl = CCCCCCCCCCCC(=O)*; Orn = NCCC[C@H](N)C(=O)O
Experiments:
S. aureus ATCC 6538 = format: cell-based, Staphylococcus aureus
Procedure: (§1) The reference strains were supplied by the Polish Collection of Microorganisms (Polish Academy of Sciences, Institute of Immunology and Experimental Therapy, Wroclaw, Poland). Minimal inhibitory concentration (MIC) was determined by the microbroth dilution method outlined by the National Committee for Clinical Laboratory Standards ([2003]). The following microbial strains were tested: Gram-positive: Rhodococcus equi ATCC 6939, Staphylococcus epidermidis, S. aureus ATCC 6538, Streptococcus pyogenes and Enterococcus faecalis; Gram-negative: E. coli ATCC 8739, Pseudomonas aeruginosa and fungi: C. albicans ATCC10231. Bacteria were suspended in Mueller–Hinton II broth (Sigma-Aldrich) at initial inocula of 5 × 10^5 cfu (colony-forming units)/mL, while the Sabouraud 5 % dextrose broth of a pH of 7.4 (Sigma-Aldrich) was used for fungi (at initial inoculum of 5 × 10^3 cfu/mL). Microbial cells in polystyrene 96-well plates were exposed to the peptides at adequate concentrations (range 1–512 μg/mL) for 18 h at 37 °C (bacterial strains) or for 48 h at 25 °C (fungi). MIC was taken as the lowest drug concentration at which observable growth was inhibited. Experiments were performed in triplicate on three different days.

E. coli ATCC 8739 = format: cell-based, Escherichia coli
Procedure: as §1

Enterococcus faecalis = format: cell-based
Procedure: as §1

Pseudomonas aeruginosa = format: cell-based
Procedure: as §1

[1] = test system: Rhodococcus equi ATCC 6939; format: cell-based
Procedure: as §1

[2] = test system: Staphylococcus epidermidis; format: cell-based
Procedure: as §1

Streptococcus pyogenes = format: cell-based
Procedure: as §1

C. albicans ATCC10231 = format: cell-based, Candida albicans
Procedure: as §1

human red blood cells = experiment: Haemolysis assay; format: cell-based; settings: human red blood cells 4 % [v/v] in PBS, 2 h at 37 °C, range 1-512 µg/mL, assessed visually; 1 % Triton positive control
Procedure: The haemolytic activity of the peptides was tested against human red blood cells, essentially as described previously (Kamysz et al. [2007]). Fresh human blood was collected into tubes containing EDTA as anticoagulant. Red blood cells were separated by centrifugation at 500×g for 12 min at room temperature and the plasma was aspirated. Erythrocytes were washed three times with PBS, separated by centrifugation (500×g, 12 min) and resuspended in PBS. Peptides I–V were serially diluted in PBS (range 1–512 μg/mL) and 50 μL was added to 50 μL of the erythrocyte suspension. The final concentration of red blood cells was 4 % [v/v]. The results were assessed visually after incubation for 2 h at 37 °C. As a positive control, 1 % Triton was used, whereas PBS served as a negative control.

Antimicrobial activity (MIC) (S. aureus ATCC 6538; ATCC 6538, 18 h) | Antimicrobial activity (MIC) (E. coli ATCC 8739; ATCC 8739, 18 h) | Antimicrobial activity (MIC) (Enterococcus faecalis; 18 h) | Antimicrobial activity (MIC) (Pseudomonas aeruginosa; 18 h) | Antimicrobial activity (MIC) ([1]; ATCC 6939, 18 h) | Antimicrobial activity (MIC) ([2]; 18 h) | Antimicrobial activity (MIC) (Streptococcus pyogenes; 18 h) | Antimicrobial activity (MIC) (C. albicans ATCC10231; ATCC10231, 48 h, pH 7.4) | Compound | Antimicrobial activity (MIC) (S. aureus ATCC 6538; Staphylococcus aureus, Mueller-Hinton II broth, 5 × 10^5 cfu/mL, 18 h at 37 °C, range 1-512 µg/mL, triplicate on three different days) | Antimicrobial activity (MIC) (E. coli ATCC 8739; Escherichia coli, Mueller-Hinton II broth, 5 × 10^5 cfu/mL, 18 h at 37 °C, range 1-512 µg/mL, triplicate on three different days) | Antimicrobial activity (MIC) (Enterococcus faecalis; Enterococcus faecalis, Mueller-Hinton II broth, 5 × 10^5 cfu/mL, 18 h at 37 °C, range 1-512 µg/mL, triplicate on three different days) | Antimicrobial activity (MIC) (Pseudomonas aeruginosa; Pseudomonas aeruginosa, Mueller-Hinton II broth, 5 × 10^5 cfu/mL, 18 h at 37 °C, range 1-512 µg/mL, triplicate on three different days) | Antimicrobial activity (MIC) ([1]; Rhodococcus equi, Mueller-Hinton II broth, 5 × 10^5 cfu/mL, 18 h at 37 °C, range 1-512 µg/mL, triplicate on three different days) | Antimicrobial activity (MIC) ([2]; Staphylococcus epidermidis, Mueller-Hinton II broth, 5 × 10^5 cfu/mL, 18 h at 37 °C, range 1-512 µg/mL, triplicate on three different days) | Antimicrobial activity (MIC) (Streptococcus pyogenes; Streptococcus pyogenes, Mueller-Hinton II broth, 5 × 10^5 cfu/mL, 18 h at 37 °C, range 1-512 µg/mL, triplicate on three different days) | Antimicrobial activity (MIC) (C. albicans ATCC10231; Candida albicans, Sabouraud 5 % dextrose broth pH 7.4, 5 × 10^3 cfu/mL, 48 h at 25 °C, range 1-512 µg/mL, triplicate on three different days) | Haemolytic activity (human red blood cells)
– | – | – | – | – | – | – | – | GRRRRSVQWCA-NH2 [Peptide I, hLF(1–11)–NH2] | 64 µg/mL | 512 µg/mL | 256 µg/mL | 32 µg/mL | 16 µg/mL | 2 µg/mL | 2 µg/mL | 128 µg/mL | >512 µg/mL
4 µg/mL | 128 µg/mL | 32 µg/mL | 8 µg/mL | 2 µg/mL | 1 µg/mL | 2 µg/mL | >512 µg/mL | CCCCCCCCCCCC(=O)N[C@@H](CCCN)C(=O)N[C@@H](CCCN)C(=O)N[C@@H](CSSC[C@H](NC(=O)[C@H](Cc1c[nH]c2ccccc12)NC(=O)[C@H](CCC(N)=O)NC(=O)[C@@H](NC(=O)[C@H](CO)NC(=O)[C@H](CCCNC(=N)N)NC(=O)[C@H](CCCNC(=N)N)NC(=O)[C@H](CCCNC(=N)N)NC(=O)[C@H](CCCNC(=N)N)NC(=O)CN)C(C)C)C(=O)N[C@@H](C)C(N)=O)C(N)=O [Peptide V] (H-GRRRRSVQWC(X1)A-NH2; N-terminus assumed) | – | – | – | – | – | – | – | – | –
2 µg/mL | 8 µg/mL | 4 µg/mL | 4 µg/mL | 1 µg/mL | 2 µg/mL | 2 µg/mL | >512 µg/mL | CCCCCCCCCCCC(=O)N[C@@H](CCCN)C(=O)N[C@@H](CCCN)C(=O)N[C@@H](CSSC[C@H](NC(=O)[C@H](CCCN)NC(=O)[C@H](CCCN)NC(=O)CCCCCCCCCCC)C(N)=O)C(N)=O [Peptide IV] (I: Lauroyl-[Orn]-[Orn]-Cys-NH2 / II: Lauroyl-[Orn]-[Orn]-Cys-NH2; disulfide I:3-II:3) | – | – | – | – | – | – | – | – | –
2 µg/mL | 8 µg/mL | 2 µg/mL | 8 µg/mL | 2 µg/mL | 2 µg/mL | 4 µg/mL | 128 µg/mL | CCCCCCCCCCCC(=O)N[C@@H](CCCN)C(=O)N[C@@H](CCCN)C(=O)N[C@@H](CS)C(N)=O [Peptide III, Laur-Orn-Orn-Cys–NH2] (Lauroyl-[Orn]-[Orn]-Cys-NH2) | – | – | – | – | – | – | – | – | –

From paper PMC4305368, “Influence of Dimerization of Lipopeptide Laur-Orn-Orn-Cys–NH2 and an N-terminal Peptide of Human Lactoferricin on Biological Activity” (International Journal of Peptide Research and Therapeutics, 2014)
